Literature values as cited in publication PMC7188728, “A phase I study investigation of metabolism, and disposition of [^14C]-anlotinib after an oral administration in patients with advanced refractory solid tumors” (Cancer Chemotherapy and Pharmacology, 2020).
Where a name gives a salt, the structure may show the parent alone.

Set-up: method as in PMID 29620050
Settings: rats and dogs; cited from earlier work

For `COc1cc2c(Oc3ccc4[nH]c(C)cc4c3F)ccnc2cc1OCC1(N)CC1` [anlotinib, 1-[[4-(4-fluoro-2-methyl-1H-indol-5-yloxy)-6-methoxyquinolin-7-yl]oxy]methyl) cyclopropanamine dihydrochloride], the Absorption is listed as “absorbed quickly” and the Membrane permeability is listed as “good membrane permeability”.
